From paper PMC7504817, “Phenylalanine Stereoisomers of CJ-15,208 and [D-Trp]CJ-15,208 Exhibit Distinctly Different Opioid Activity Profiles” (Molecules, 2020)
“Also recorded” adds a separate entry of the source. Where two headings read alike, the source gives them in different places.

How the values were obtained:
rat KOR [1] = target: T1, rat KOR (Rattus norvegicus, UniProt P34975); assay: biochemical
mouse DOR = conditions: radioligand binding; ref [19]; cited from earlier work
C57BL/6J mice [2] = assay: Acute antinociceptive tolerance (tail-withdrawal assay, dosing at 0 and 8 h); conditions: i.c.v.; for Fold-Shift, Naïve ED50 vs. Second ED50: 0 h vs 8 h; for ED50 (95% C.I.) Pretreated Mice: 8 h after pretreatment with ED50 dose of the same compound, * significantly different from naïve; for Naïve ED50 (95% C.I.): naïve C57BL/6J mice, tail-withdrawal assay; for acute antinociceptive tolerance: ED50 at 8 h vs 0 h
C57BL/6J mice [3] = conditions: ref [19], [20]; cited from earlier work
C57BL/6J mice [4] = conditions: mice, ref [19], [20], cited from earlier work
[5] = set-up: method as in Khaliq et al., manuscript in preparation; conditions: ref Khaliq et al., manuscript in preparation; cited from earlier work
rat KOR [6] = target: T1, rat KOR; conditions: ratio Ki(MOR)/Ki(KOR)
rat MOR = target: T2, rat MOR (Rattus norvegicus, UniProt P33535); assay: Radioligand equilibrium competition binding, MOR; conditions: [3H]DAMGO; membranes from CHO cells expressing rat MOR; mean ± SEM, at least three experiments
T2 construct: expressed in transfected cells

C57BL/6J mice [7] = assay: Conditioned place preference / aversion assay; conditions: 10 mg/kg, i.p., two-day place conditioning
C57BL/6J mice [8] = assay: Respiration and ambulation, CLAMS/Oxymax system; conditions: 10 mg/kg, i.p.; 60 min
[9] = Metabolic stability in mouse liver microsomes; assay type: in vitro ADME; conditions: pH 7.4, 5 µM peptide, 0.25 mg/mL protein, with NADPH, 37 °C, read-out: t1/2 in mouse liver microsomes
Method: The macrocyclic tetrapeptide (5 µM) in 1% acetonitrile was incubated with mouse liver microsomes (0.25 mg/mL protein, Xenotech, Lenexa, KS, USA) at 37 °C in the presence or absence of co-factor NADPH RapidStart System (1 mM, Xenotech) or NADPH solution (Sigma, St. Louis, MO, USA) in potassium phosphate buffer (50 mM, pH 7.4). Aliquots (100 µL) taken at 0, 5, 15, 30, 60 and 120 min were quenched with ice-cold acetonitrile (1 vol) containing internal standard ([D-NMeAla^2]CJ-15,208 [26], 5 µM) to precipitate the proteins. The lack of endogenous interference with the analysis of the stereoisomer or internal standard was confirmed by analyzing samples lacking the macrocyclic tetrapeptide.
Following centrifugation at 10,000× g rpm for 10 min, the supernatant (50 µL) was diluted with water (75 µL), stored overnight at −20 °C and analyzed by LC-MS/MS using methodology similar to that described for [D-Trp]CJ-15,208 [32]. Liquid chromatography was performed on a Hypersil BDS C8 column (50 mm × 2.1 mm, 3 µm) with a flow rate of 0.2 mL/min and an injection volume of 20 µL using an Acquity UPLC system (Waters, Milford, MA, USA). The peptides were separated using a gradient of aqueous acetonitrile containing 0.08% formic acid of 20% B (0–2 min), 20–50% B (2–3 min), 50–80% B (3–6 min), 80% B (6–7 min), 80–20% B (7–8 min) and 20% B (8–10 min).
ESI-MS/MS was performed on a Waters Quatro triple quadrupole instrument operating in the positive ion multiple reaction monitoring mode. Data acquisition was carried out with Mass Lynx 4.1 software with the following settings: capillary voltage, 2500 V; cone voltage, 30 V; source temperature, 100 °C; desolvation temperature, 250 °C; cone gas flow, 279 L/h; desolvation gas flow, 1157 L/h; LM 1 resolution, 14; HM 1 resolution, 14; ion energy 1, 1.0; MS/MS mode entrance, -1; MS/MS collision energy, 35 eV; MS/MS mode exit, 2; LM 2 resolution, 13.0; HM 2 resolution, 13.0; ion energy 2, 1.5; multiplier, 650; collision cell pressure, 1.63 × 10^−3 mbar; collision gas, argon. The transition m/z 578.2 ([M + H]^+) → 217.2 was monitored to determine the peak area counts of the stereoisomers, and m/z 566.2 ([M + H]^+) → 232.9 was monitored to determine the peak area counts of the internal standard (collision energy 22 eV) with the following settings: dwell time, 0.3 s; delay, 0.05 s.

DOR = target: T3, DOR (Mus musculus, UniProt P32300); assay: Antagonist activity against DOR-selective agonist SNC-80 (tail-withdrawal assay); assay type: in vivo; conditions: stereoisomer 100 nmol i.c.v. pretreatment; SNC-80 100 nmol i.c.v.
T3 construct: from tissue; host or cells: whole animal, C57BL/6J mice

C57BL/6J mice [10] = conditions: mouse, in vivo
C57BL/6J mice [11] = assay: Opioid receptor involvement in antinociception (antagonist pretreatment, tail-withdrawal assay); assay type: in vivo, mouse; conditions: i.c.v. (1, 3, 4, 5 at 10 nmol, 2 at 100 nmol); pretreatment with β-FNA, nor-BNI or naltrindole
C57BL/6J mice [12] = assay: 55 °C warm-water tail-withdrawal assay (antinociception); assay type: in vivo, mouse
Method: For intracerebroventricular (i.c.v.) administration the macrocyclic tetrapeptides were dissolved in dimethyl sulfoxide (DMSO), followed by addition of sterile saline (0.9%) so that the final vehicle was 50% DMSO and 50% saline, and the i.c.v. injections performed as described previously. This concentration of DMSO was not observed to have antinociceptive or behavioral effects in previous use. For per os (p.o.) administration the macrocyclic tetrapeptides were administered in 10% Solutol in 0.9% saline. All solutions for animal administration were prepared fresh daily.
The 55 °C warm-water tail-withdrawal assay was performed in mice as previously described, with the latency of the mouse to withdraw its tail from the water taken as the endpoint (a cut-off time of 15 sec was used in this assay). Antinociception was calculated according to the following formula: % antinociception = 100 × (test latency − control latency)/(15 − control latency). Tail-withdrawal data points are the means of 8–16 mice, unless otherwise indicated, with SEM shown by error bars.
All dose-response lines were analyzed by regression, and ED50 (effective dose producing 50% antinociception) values and 95% confidence intervals (C.I.) determined using individual data points from graded dose-response curves with Prism 8.0 software (GraphPad, La Jolla, CA, USA). Percent antinociception was used to determine within group effects and to allow comparison to baseline latency in tail-withdrawal experiments. The statistical significance of differences between ED50 values was determined by evaluation of the ED50 value shift via nonlinear regression modeling with Prism software. Significant differences in behavioral data were analyzed by ANOVA (one-way or two-way with repeated measures (RM), as appropriate). Significant results were further analyzed with Sidak’s, Tukey’s, or Dunnett’s multiple comparison post hoc tests, as appropriate. Data for conditioned place preference experiments were analyzed by two-way RM ANOVA, with analyses examining the main effect of conditioned place preference phase (e.g., pre- or post-conditioning) and the interaction of drug pretreatment. Significant effects were further analyzed using Sidak’s HSD post hoc testing. All data are presented as mean ± SEM, with significance set at p < 0.05.

C57BL/6J mice [13] = conditions: mouse, in vivo; remark: listed apart in the source
C57BL/6J mice [14] = conditions: mouse, in vivo; remark: listed apart in the source

T1 sequence (P34975 whole entry): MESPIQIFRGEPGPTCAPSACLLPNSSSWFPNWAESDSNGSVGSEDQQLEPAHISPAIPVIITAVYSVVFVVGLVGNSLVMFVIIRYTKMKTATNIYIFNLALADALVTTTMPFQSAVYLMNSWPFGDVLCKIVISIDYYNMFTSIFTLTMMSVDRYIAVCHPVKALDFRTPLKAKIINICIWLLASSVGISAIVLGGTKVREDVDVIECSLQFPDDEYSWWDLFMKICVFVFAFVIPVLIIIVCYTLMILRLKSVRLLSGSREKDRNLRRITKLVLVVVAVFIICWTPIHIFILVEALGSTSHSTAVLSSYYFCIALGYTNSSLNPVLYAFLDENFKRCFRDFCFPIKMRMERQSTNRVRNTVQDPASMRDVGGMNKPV
T2 sequence (P33535 whole entry): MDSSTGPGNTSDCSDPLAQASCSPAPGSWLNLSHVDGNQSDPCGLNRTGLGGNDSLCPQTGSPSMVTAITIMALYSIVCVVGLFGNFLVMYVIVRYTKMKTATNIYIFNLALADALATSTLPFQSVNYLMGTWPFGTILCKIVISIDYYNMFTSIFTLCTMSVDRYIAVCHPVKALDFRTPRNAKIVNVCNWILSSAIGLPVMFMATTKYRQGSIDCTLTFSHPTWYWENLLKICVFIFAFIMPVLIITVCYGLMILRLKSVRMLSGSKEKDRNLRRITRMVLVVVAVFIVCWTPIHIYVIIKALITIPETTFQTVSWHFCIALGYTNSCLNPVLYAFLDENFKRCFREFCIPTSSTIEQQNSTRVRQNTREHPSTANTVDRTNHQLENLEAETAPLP
T3 sequence (P32300 whole entry): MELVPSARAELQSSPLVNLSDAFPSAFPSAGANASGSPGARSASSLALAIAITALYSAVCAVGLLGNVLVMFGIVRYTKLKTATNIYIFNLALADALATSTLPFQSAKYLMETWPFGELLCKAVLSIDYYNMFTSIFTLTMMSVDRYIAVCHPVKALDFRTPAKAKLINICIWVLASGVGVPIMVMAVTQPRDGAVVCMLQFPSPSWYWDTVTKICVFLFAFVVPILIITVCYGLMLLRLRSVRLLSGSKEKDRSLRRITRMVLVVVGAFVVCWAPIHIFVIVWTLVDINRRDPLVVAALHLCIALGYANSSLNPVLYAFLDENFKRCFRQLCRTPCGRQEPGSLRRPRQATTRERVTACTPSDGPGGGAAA

In the case of O=C1N[C@@H](Cc2ccccc2)C(=O)N2CCC[C@@H]2C(=O)N[C@@H](Cc2ccccc2)C(=O)N[C@H]1Cc1c[nH]c2ccccc12 [CJ-15,208, cyclo[Phe-D-Pro-Phe-Trp]], the Ki (rat KOR [1]) is given as 27.4 ± 4.6 nM, the “affinity for DOR” value (mouse DOR) is given as “negligible affinity for DOR” and the “Fold-Shift, Naïve ED50 vs. Second ED50” value (C57BL/6J mice [2]) is given as 2.87 fold. For the same compound, the “ED50 (95% C.I.) Pretreated Mice” value (C57BL/6J mice [2]) was 5.23 (4.23–6.48) nmol, the “Naïve ED50 (95% C.I.)” value (C57BL/6J mice [2]) was 1.82 (1.22–2.74) nmol and the “Receptors Involved (in antinociception)” value (C57BL/6J mice [3]) was “KOR, MOR”. The “ED50 (and 95% C.I.) i.c.v.” value (C57BL/6J mice [4]; i.c.v.) was 1.74 (0.62–4.82) nmol, the “ED50 (and 95% C.I.) p.o.” value (C57BL/6J mice [4]; p.o.) was 3.49 (1.98–5.73) mg/kg and the “half-life in mouse liver microsomes” value [5] was 49 min. The “Selectivity Ki (MOR) Ki (KOR)” value (rat KOR [6]) was 16.5 and the Ki (rat MOR) was 451 ± 114 nM.
In the case of CN1CC[C@]23c4c5ccc(O)c4O[C@H]2[C@@H](O)C=C[C@H]3[C@H]1C5 [Morphine, morphine, reference compound], the “Fold-Shift, Naïve ED50 vs. Second ED50” value (C57BL/6J mice [2]) is reported as 7.63 fold, the “acute antinociceptive tolerance” value (C57BL/6J mice [2]) is reported as “demonstrated acute antinociceptive tolerance” and the “Naïve ED50 (95% C.I.)” value (C57BL/6J mice [2]) is reported as 2.91 (2.48–3.41) nmol. The “conditioned place preference or aversion” value (C57BL/6J mice [7]) was “significant place-preference for the morphine-paired chamber”, the “effect on ambulation vs vehicle” value (C57BL/6J mice [8]) was “robust, significant increases in ambulation” and the “effect on respiration rate vs vehicle” value (C57BL/6J mice [8]) was “significant, time-dependent respiratory depression”.
In the case of O=C1N[C@H](Cc2ccccc2)C(=O)N[C@H](Cc2c[nH]c3ccccc23)C(=O)N[C@@H](Cc2ccccc2)C(=O)N2CCC[C@H]12 (single isomer, unassigned) [Stereoisomer 5, cyclo[Phe-D-Pro-D-Phe-D-Trp]], the Ki (rat KOR [1]) is reported as 353 ± 19 nM, the half-life at 5 µM [9] is reported as 15 min and the “antagonism of SNC-80 antinociception (DOR antagonist activity)” value (DOR) is reported as “significantly antagonized SNC-80”. The “Fold-Shift, Naïve ED50 vs. Second ED50” value (C57BL/6J mice [2]) was 1.09 fold, the “ED50 (95% C.I.) Pretreated Mice” value (C57BL/6J mice [2]) was 0.49 (0.09–1.36) nmol and the “acute antinociceptive tolerance” value (C57BL/6J mice [2]) was “Neither stereoisomer 4 or 5 demonstrated any significant changes in the ED50 values”. The “Naïve ED50 (95% C.I.)” value (C57BL/6J mice [2]) was 0.45 (0.28–0.70) nmol, the “effect on coordinated locomotor performance (rotarod) vs vehicle” value (C57BL/6J mice [10]) was “lacked any significant effect” and the “Receptors Involved (in antinociception)” value (C57BL/6J mice [11]) was “all three opioid receptors contributed to the antinociception; also recorded: KOR, MOR, DOR”. For the same compound, the “Selectivity Ki (MOR) Ki (KOR)” value (rat KOR [6]) was 16, the “time of peak antinociception” value (C57BL/6J mice [12]; after i.c.v. administration) was 30 min and the “duration of significant antinociception” value (C57BL/6J mice [12]; i.c.v. administration) was 90 min. For the same compound, the “ED50 (and 95% C.I.) i.c.v.” value (C57BL/6J mice [12]; i.c.v., C57BL/6J mice, antinociception at peak response) was 0.56 (0.38–0.91) nmol, the “antinociceptive efficacy” value (C57BL/6J mice [12]; p.o.) was “full antinociception” and the “time of peak antinociception” value (C57BL/6J mice [12]; p.o. administration) was 20 to 30 min. The “ED50 (and 95% C.I.) p.o.” value (C57BL/6J mice [12]; p.o., C57BL/6J mice, antinociception at peak response) was 4.72 (3.70–6.39) mg/kg, the Ki (rat MOR) was 5800 ± 1450 nM and the “conditioned place preference or aversion” value (C57BL/6J mice [13]) was “no significant preference or aversion”. The “effect on respiration rate vs vehicle” value (C57BL/6J mice [14]) was “significant decreases in respiration rates”.
